From patent US9302999B2, “Substituted triazoles as herbicides” (E. I. DU PONT DE NEMOURS AND COMPANY, priority 2012, dated 2016)

Columns and labels:
Format in all cases: in vivo
[1] = tested on: velvetleaf (Abutilon theophrasti); experiment: Test E pre-/postemergence: velvetleaf; conditions: Preemergence, scale 0 to 100
Description: (§1) Seeds of plant species selected from corn (Zea mays), soybean (Glycine max), velvetleaf (Abutilon theophrasti), lambsquarters (Chenopodium album), poinsettia, wild (wild poinsettia, Euphorbia heterophylla), pigweed, palmer (palmer pigweed, Amaranthus palmeri), waterhemp (common waterhemp, Amaranthus rudis), smartweed (ladysthumb smartweed, Polygonum persicaria), surinam grass (Brachiaria decumbens), crabgrass, large (large crabgrass, Digitaria sanguinalis), crabgrass, Brazil (Brazilian crabgrass, Digitaria horizontalis), panicum, fall (fall panicum, Panicum dichotomiflorum), foxtail, giant (giant foxtail, Setaria faberii), foxtail, green (green foxtail, Setaria viridis), goosegrass (Eleusine indica), johnsongrass (Sorghum halepense), ragweed (common ragweed, Ambrosia elation), barnyardgrass (Echinochloa crus-galli), sandbur (southern sandbur, Cenchrus echinatus), arrowleaf sida (Sida rhombifolia), ryegrass, Italian (Italian ryegrass, Lolium multiflorum), dayflower, (VA) (Virginia dayflower, Commelina virginica), field bindweed (Convolvulus arvensis), cocklebur (common cocklebur, Xanthium strumarium), morningglory (Ipomoea coccinea), nightshade (eastern black nightshade, Solanum ptycanthum), kochia (Kochia scoparia), nutsedge, yellow (yellow nutsedge, Cyperus esculentus) and beggarticks (hairy beggarticks, Bidens pilosa) were planted into a silt loam soil and treated preemergence with test chemicals formulated in a non-phytotoxic solvent mixture which included a surfactant. At the same time, plants selected from these crop and weed species were planted in pots containing a growing medium comprising spaghnum peat moss, vermiculite, wetting agent and starter nutrients and treated with postemergence applications of some of the test chemicals formulated in the same manner. Plants ranged in height from 2 to 18 cm for postemergence treatments (1- to 4-leaf stage).
(§2) Treated plants and controls were maintained in a greenhouse for 14 to 21 days, after which time all species were compared to controls and visually evaluated. Plant response ratings, summarized in Table E, are based on a scale of 0 to 100 where 0 is no effect and 100 is complete control. A dash (-) response means no test result.

[2] = tested on: johnsongrass (Sorghum halepense); experiment: Test E pre-/postemergence: johnsongrass; conditions: Preemergence, scale 0 to 100
Description: as §1, §2

[3] = tested on: ragweed (common ragweed, Ambrosia elation); experiment: Test E pre-/postemergence: ragweed; conditions: Preemergence, scale 0 to 100
Description: as §1, §2

[4] = tested on: velvetleaf (Abutilon theophrasti); experiment: Test F pre-/postemergence: velvetleaf; conditions: Preemergence
Description: (§3) Seeds of plant species selected from corn (Zea mays), soybean (Glycine max), velvetleaf (Abutilon theophrasti), lambsquarters (Chenopodium album), poinsettia, wild (wild poinsettia, Euphorbia heterophylla), pigweed, palmer (palmer pigweed, Amaranthus palmeri), waterhemp (common waterhemp, Amaranthus rudis), surinam grass (Brachiaria decumbens), crabgrass, Brazil (Brazilian crabgrass, Digitaria horizontalis), panicum, fall (fall panicum Panicum dichotomiflorum), crabgrass, large (large crabgrass, Digitaria sanguinalis), foxtail, giant (giant foxtail, Setaria faberii), foxtail, green (green foxtail Setaria viridis), goosegrass (Eleusine indica), ragweed (common ragweed, Ambrosia elatior), barnyardgrass (Echinochloa crus-galli), sandbur (southern sandbur, Cenchrus echinatus), arrowleaf sida (Sida rhombifolia), ryegrass, Italian (Italian ryegrass, Lolium multiflorum), dayflower, VA (Virginia (VA) dayflower, Commelina virginica), field bindweed (Convolvulus arvensis), cocklebur (common cocklebur, Xanthium strumarium), morningglory (Ipomoea coccinea), nightshade (eastern black nightshade, Solanum ptycanthum), kochia (Kochia scoparia), nutsedge, yellow (yellow nutsedge, Cyperus esculentus), johnsongrass (Sorghum halepense), smartweed (ladysthumb smartweed, Polygonum persicaria), and beggarticks (hairy beggarticks, Bidens pilosa), were planted into a silt loam soil and treated preemergence with test chemicals formulated in a non-phytotoxic solvent mixture which included a surfactant. At the same time, plants selected from these crop and weed species and also pigweed (Amaranthus retroflexus), waterhemp_RES1 (ALS/Triazine resistant common waterhemp, Amaranthus rudis) and waterhemp_RES2 (ALS/HPPD resistant common waterhemp, Amaranthus rudis) were planted in pots containing a planting medium comprising spaghnum peat moss, vermiculite, wetting agent and starter nutrients treated with postemergence applications of some of the test chemicals formulated in the same manner. Plants ranged in height from 2 to 18 cm for postemergence treatments (1- to 4-leaf stage).
as §2

[5] = tested on: poinsettia, wild (wild poinsettia, Euphorbia heterophylla); experiment: Test F pre-/postemergence: poinsettia, wild; conditions: Preemergence
Description: as §3, §2

[6] = tested on: foxtail, giant (giant foxtail, Setaria faberii); experiment: Test F pre-/postemergence: foxtail, giant; conditions: Preemergence
Description: as §3, §2

[7] = tested on: nightshade (eastern black nightshade, Solanum ptycanthum); experiment: Test F pre-/postemergence: nightshade; conditions: Preemergence
Description: as §3, §2

[8] = tested on: kochia (Kochia scoparia); experiment: Test F pre-/postemergence: kochia; conditions: Preemergence
Description: as §3, §2

[9] = tested on: nutsedge, yellow (yellow nutsedge, Cyperus esculentus); experiment: Test F pre-/postemergence: nutsedge, yellow; conditions: Preemergence
Description: as §3, §2

[10] = tested on: Waterhemp; experiment: Test C postemergence: waterhemp
Description: At the same time, plants selected from these crop and weed species and also barley (winter barley, Hordeum vulgare), canarygrass (Phalaris minor), chickweed (common chickweed, Stellaria media) windgrass (Apera spica-venti) and deadnettle (henbit deadnettle, Lamium amplexicaule) were planted in pots containing Redi-Earth® planting medium (Scotts Company, 14111 Scottslawn Road, Marysville, Ohio 43041) comprising spaghnum peat moss, vermiculite, wetting agent and starter nutrients and treated with postemergence applications of test chemicals formulated in the same manner. Plants ranged in height from 2 to 18 cm (1- to 4-leaf stage) for postemergence treatments.
as §2, with “13” for “14”, “15” for “21”, “C,” for “E,”

[11] = 16 g ai/ha, scale 0 to 100 (0 no effect, 100 complete control)
[12] = 31 g ai/ha, scale 0 to 100 (0 no effect, 100 complete control)

Cc1nn(-c2ccc(F)cc2)nc1Oc1ccnc(C(F)(F)F)c1 [Compound 129, 4-[[2-(4-fluorophenyl)-5-methyl-2H-1,2,3-triazol-4-yl]oxy]-2-(trifluoromethyl)pyridine] was tested, and the “Plant response rating: Velvetleaf” value ([1]; 8 g ai/ha) was 0, the “Plant response rating: Velvetleaf” value ([1]; 16 g ai/ha) was 0 and the “Plant response rating: Velvetleaf” value ([1]; 31 g ai/ha) was 0. For the same compound, the “Plant response rating: Velvetleaf” value ([1]; 62 g ai/ha) was 20, the “Plant response rating: Velvetleaf” value ([1]; 125 g ai/ha) was 25 and the “Plant response rating: Johnsongrass” value ([2]; 8 g ai/ha) was 0. The “Plant response rating: Johnsongrass” value ([2]; 16 g ai/ha) was 20, the “Plant response rating: Johnsongrass” value ([2]; 31 g ai/ha) was 20 and the “Plant response rating: Johnsongrass” value ([2]; 62 g ai/ha) was 20. The “Plant response rating: Johnsongrass” value ([2]; 125 g ai/ha) was 25, the “Plant response rating: Ragweed” value ([3]; 8 g ai/ha) was 0 and the “Plant response rating: Ragweed” value ([3]; 16 g ai/ha) was 0. For the same compound, the “Plant response rating: Ragweed” value ([3]; 31 g ai/ha) was 5, the “Plant response rating: Ragweed” value ([3]; 62 g ai/ha) was 20 and the “Plant response rating: Ragweed” value ([3]; 125 g ai/ha) was 20.
For CCCc1nn(-c2ccc(F)cc2)nc1Cc1ccnc(C(F)(F)F)c1 [Compound 153], the “Plant response rating, Velvetleaf” value [4, 11] was 20, the “Plant response rating, Velvetleaf” value [4, 12] was 50 and the “Plant response rating, Velvetleaf” value ([4]; 125 g ai/ha, scale 0 to 100) was 98. The “Plant response rating, Velvetleaf” value ([4]; 250 g ai/ha, scale 0 to 100) was 100, the “Plant response rating, Poinsettia, Wild” value [5, 11] was 0 and the “Plant response rating, Poinsettia, Wild” value [5, 12] was 25. The “Plant response rating, Poinsettia, Wild” value ([5]; 125 g ai/ha, scale 0 to 100) was 70, the “Plant response rating, Poinsettia, Wild” value ([5]; 250 g ai/ha, scale 0 to 100) was 98 and the “Plant response rating, Foxtail, Giant” value [6, 11] was 40. For the same compound, the “Plant response rating, Foxtail, Giant” value [6, 12] was 85, the “Plant response rating, Foxtail, Giant” value ([6]; 62 g ai/ha, scale 0 to 100) was 100 and the “Plant response rating, Foxtail, Giant” value ([6]; 125 g ai/ha, scale 0 to 100) was 100. For the same compound, the “Plant response rating, Foxtail, Giant” value ([6]; 250 g ai/ha, scale 0 to 100) was 100, the “Plant response rating, Nightshade” value [7, 11] was 50 and the “Plant response rating, Nightshade” value [7, 12] was 50. For the same compound, the “Plant response rating, Nightshade” value ([7]; 125 g ai/ha, scale 0 to 100) was 100, the “Plant response rating, Nightshade” value ([7]; 250 g ai/ha, scale 0 to 100) was 100 and the “Plant response rating, Kochia” value [8, 11] was 25. The “Plant response rating, Kochia” value [8, 12] was 75, the “Plant response rating, Kochia” value ([8]; 62 g ai/ha, scale 0 to 100) was 95 and the “Plant response rating, Kochia” value ([8]; 125 g ai/ha, scale 0 to 100) was 100. The “Plant response rating, Kochia” value ([8]; 250 g ai/ha, scale 0 to 100) was 100, the “Plant response rating, Nutsedge, Yellow” value [9, 11] was 0 and the “Plant response rating, Nutsedge, Yellow” value [9, 12] was 0. The “Plant response rating, Nutsedge, Yellow” value ([9]; 125 g ai/ha, scale 0 to 100) was 10, the “Plant response rating, Nutsedge, Yellow” value ([9]; 250 g ai/ha, scale 0 to 100) was 10 and the “Plant response rating, Waterhemp” value [10, 12] was 98. The “Plant response rating, Waterhemp” value ([10]; 62 g ai/ha, scale 0 to 100 (0 no effect, 100 complete control)) was 98 and the “Plant response rating, Waterhemp” value ([10]; 250 g ai/ha, scale 0 to 100) was 98.
Cc1nn(-c2ccc(F)cc2)nc1Cc1ccnc(C(F)(F)F)c1 [Compound 16, 4-[[2-(4-fluorophenyl)-5-methyl-2H-1,2,3-triazol-4-yl]methyl]-2-(trifluoromethyl)pyridine] was tested, and the “Plant response rating: Velvetleaf” value ([1]; 8 g ai/ha) was 0, the “Plant response rating: Velvetleaf” value ([1]; 16 g ai/ha) was 20 and the “Plant response rating: Velvetleaf” value ([1]; 31 g ai/ha) was 30. For the same compound, the “Plant response rating: Velvetleaf” value ([1]; 62 g ai/ha) was 80, the “Plant response rating: Velvetleaf” value ([1]; 125 g ai/ha) was 80 and the “Plant response rating: Johnsongrass” value ([2]; 8 g ai/ha) was 0. For the same compound, the “Plant response rating: Johnsongrass” value ([2]; 16 g ai/ha) was 15, the “Plant response rating: Johnsongrass” value ([2]; 31 g ai/ha) was 20 and the “Plant response rating: Johnsongrass” value ([2]; 62 g ai/ha) was 40. The “Plant response rating: Johnsongrass” value ([2]; 125 g ai/ha) was 98, the “Plant response rating: Ragweed” value ([3]; 8 g ai/ha) was 0 and the “Plant response rating: Ragweed” value ([3]; 16 g ai/ha) was 0. The “Plant response rating: Ragweed” value ([3]; 31 g ai/ha) was 0, the “Plant response rating: Ragweed” value ([3]; 62 g ai/ha) was 30 and the “Plant response rating: Ragweed” value ([3]; 125 g ai/ha) was 30.
